Measurements published in US8735425B2, “Tetrahydroisoquinoline derivative” (Daiichi Sankyo Company, Limited, priority 2008, dated 2014).

Columns and labels:
[1] = biological target: T1, DGAT1 enzyme (Homo sapiens, UniProt O75907); assay: DGAT1 inhibitory activity test; format: biochemical; conditions: test compound concentration of 0.05 μg/ml; read-out: Inhibitory Rate
T1 construct: made in house
T1 sequence (O75907 1-488): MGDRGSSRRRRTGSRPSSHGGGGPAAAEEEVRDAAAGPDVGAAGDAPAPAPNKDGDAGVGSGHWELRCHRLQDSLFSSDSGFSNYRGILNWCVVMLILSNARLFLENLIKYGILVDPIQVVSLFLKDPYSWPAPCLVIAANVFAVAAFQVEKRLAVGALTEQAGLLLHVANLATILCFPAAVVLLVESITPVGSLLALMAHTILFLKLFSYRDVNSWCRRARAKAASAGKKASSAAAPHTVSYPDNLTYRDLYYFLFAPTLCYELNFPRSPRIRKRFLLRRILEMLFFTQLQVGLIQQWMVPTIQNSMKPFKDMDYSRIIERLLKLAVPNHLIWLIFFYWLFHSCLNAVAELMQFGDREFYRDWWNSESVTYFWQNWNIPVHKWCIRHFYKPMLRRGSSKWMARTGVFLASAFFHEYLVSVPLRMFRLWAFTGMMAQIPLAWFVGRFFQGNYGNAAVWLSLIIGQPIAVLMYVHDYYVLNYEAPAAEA
Method: DGAT1 enzyme was prepared and stored according to the method described in US2007/0249620.
(2) DGAT1 Inhibitory Activity Test
A reaction solution having the following composition was incubated at room temperature (23° C.) for 30 minutes: 175 mM Tris-HCl (pH 8.0), 8 mM MgCl2, 1 mg/ml BSA, 0.3 mM 1,2-dioleoyl-sn-glycerol (10-fold concentration of EtOH solution, 10% added), 10 μM [^14C]-oleoyl-CoA (approximately 50 mCi/mmol), 0.5% Triton X-100, the DGAT1 enzyme (10 μg) obtained in Test Example 1(1), and a test compound or vehicle (DMSO/MeOH, 7:3 solution, 5% added), […] in total. A reaction stop solution ([…] consisting of isopropanol/1-heptane/water (80:20:2, v/v/v) was added to the reaction solution and stirred. Subsequently, water (30 μl) and 1-heptane (100 μl) were added thereto and stirred. The 1-heptane layer (50 μl) was spotted onto a TLC plate and developed with a developing solvent consisting of 1-hexane/diethyl ether/acetic acid (85:15:1, v/v/v). The radioactivity of the triglyceride fraction was quantified using BAS2000 Bio Image Analyzer (FUJIFILM) and compared with the control. The inhibitory activity of the test compound was calculated according to the formula shown below. In this context, the radioactivity at no reaction (0 minute incubation) was used as background. Inhibitory Rate=100−[(Radioactivity of sample supplemented with test compound)−(Background)]/[(Radioactivity of control)−(Background)]×100

[2] = test system: Male C57BL/6N mice; assay: Triglyceride absorption suppression after fat loading (in vivo DGAT1 inhibitory effect); conditions: Mus musculus, po; dose of 10 mg/kg or lower, orally administered, mice fasted overnight, plasma triglyceride after fat loading; read-out: Triglyceride absorption suppressive activity
Method: The DGAT1 enzyme is important for the digestion and absorption of triglycerides, and the inhibition of DGAT1 in the small intestine suppresses the absorption of triglycerides. The in vivo activity of its DGAT1 inhibitory effect was evaluated with the suppressed absorption of triglycerides after fat loading as an index. Male C57BL/6N mice (7-12 weeks old, body weight: 17-25 g, Charles River Laboratories Japan Inc.) fasted overnight were assigned to Vehicle group 1, Vehicle group 2, and each test compound group, to which a vehicle (0.5% methylcellulose) or each test compound (1 to 10 mg/kg) suspended in vehicle was orally administered (5 mL/kg). After a given time, a lipoprotein lipase inhibitor (Pluronic-F127: Sigma-Aldrich Corp., 1 g/kg, 20% by weight dissolved in saline) was intraperitoneally administered (5 mL/kg) to each group. Immediately thereafter, distilled water for the Vehicle group 1 or a 20% fat-containing emulation (Intralipid 20%: TERUMO CORP., Japan) for the Vehicle group 2 and the compound groups were orally administered thereto (0.2 mL/mouse). After a given time of 1 to 4 hours after administration, blood was collected from the tail vein or the right ventricle, and plasma was immediately separated and collected. Then, the triglyceride concentration in plasma was measured using a commercially available kit (Triglyceride E-Test Wako: Wako Pure Chemical Industries, Ltd.). In this method, the administration of the lipoprotein lipase inhibitor suppresses the hydrolysis of triglycerides in the blood such that the triglycerides are accumulated in the blood. These triglycerides are derived from two origins: exogenous triglycerides absorbed in the gastrointestinal tract and endogenous triglycerides released from the liver. The triglyceride absorption suppressive activity of each test compound was calculated based on the equation shown below by removing the influence of the endogenous triglycerides. In this context, each test compound was separately confirmed to have no influence on the concentration of the endogenous triglycerides.
Triglyceride absorption suppressive activity (%)=100−[(Triglyceride concentration of each test compound group)−(Triglyceride concentration of Vehicle group 1)]/[(Triglyceride concentration of Vehicle group 2)−(Triglyceride concentration of Vehicle group 1)]×100

inhibition at 0.05 µg/mL [1] [%] | Structure (SMILES) | inhibition in vivo at up to 10 mg/kg [2] [%]
≥ 50 | O=C(O)C[C@H]1CC[C@H](OC(=O)N2CCc3cc(NC(=O)Nc4ccccc4F)ccc3C2)C1 (relative stereo) [Example 7, trans-6-[3-(2-fluoro-phenyl)-ureido]-3,4-dihydro-1H-isoquinoline-2-carboxylic acid 3-carboxymethyl-cyclopentyl ester] | ≥ 60
≥ 50 | C[C@H]1C[C@H](CC(=O)O)CC[C@H]1OC(=O)N1CCc2cc(NC(=O)Nc3ccccc3F)ccc2C1 (relative stereo) [Example 15, 6-[3-(2-fluoro-phenyl)-ureido]-3,4-dihydro-1H-isoquinoline-2-carboxylic acid t-4-carboxymethyl-c-2-methyl-r-1-cyclohexyl ester] | ≥ 60
≥ 50 | C[C@@H]1C[C@H](CC(=O)O)CC[C@H]1OC(=O)N1CCc2cc(NC(=O)Nc3ccccc3F)ccc2C1 (relative stereo) [Example 16, 6-[3-(2-fluoro-phenyl)-ureido]-3,4-dihydro-1H-isoquinoline-2-carboxylic acid t-4-carboxymethyl-t-2-methyl-r-1-cyclohexyl ester] | ≥ 60
≥ 50 | CCOc1cccc(NC(=O)Nc2ccc3c(c2)CCN(C(=O)O[C@@H]2CC[C@@H](CC(=O)O)C[C@H]2C)C3)c1 (relative stereo) [Example 99, 6-[3-(3-ethoxy-phenyl)-ureido]-3,4-dihydro-1H-isoquinoline-2-carboxylic acid t-4-carboxymethyl-t-2-methyl-r-1-cyclohexyl ester] | ≥ 60
≥ 50 | CCOc1cccc(NC(=O)Nc2ccc3c(c2)CCN(C(=O)O[C@@H]2CC[C@@H](CC(=O)O)C[C@@H]2C)C3)c1 (relative stereo) [Example 100, 6-[3-(3-ethoxy-phenyl)-ureido]-3,4-dihydro-1H-isoquinoline-2-carboxylic acid t-4-carboxymethyl-c-2-methyl-r-1-cyclohexyl ester] | ≥ 60
≥ 50 | COc1cccc(NC(=O)Nc2ccc3c(c2)CCN(C(=O)O[C@@H]2CC[C@@H](CC(=O)O)C[C@H]2C)C3)c1 (relative stereo) [Example 101, 6-[3-(3-methoxy-phenyl)-ureido]-3,4-dihydro-1H-isoquinoline-2-carboxylic acid t-4-carboxymethyl-t-2-methyl-r-1-cyclohexyl ester] | ≥ 60
≥ 50 | O=C(O)C[C@H]1CC[C@H](OC(=O)N2CCc3cc(NC(=O)Nc4ccccc4F)ccc3C2)CC1 [Example 2, trans-6-[3-(2-fluoro-phenyl)-ureido]-3,4-dihydro-1H-isoquinoline-2-carboxylic acid 4-carboxymethyl-cyclohexyl ester] | ≥ 60
≥ 50 | O=C(O)CC1CCC(NC(=O)N2CCc3cc(NC(=O)Nc4ccccc4F)ccc3C2)CC1 (stereo not shown) [Example 5, [4-({6-[3-(2-fluoro-phenyl)-ureido]-3,4-dihydro-1H-isoquinoline-2-carbonyl}-amino)-cyclohexyl]-acetic acid] | ≥ 60
≥ 50 | O=C(Nc1ccc2c(c1)CCN(C(=O)O[C@H]1CC[C@H](C(=O)O)CC1)C2)Nc1ccccc1F [Example 8, trans-6-[3-(2-fluoro-phenyl)-ureido]-3,4-dihydro-1H-isoquinoline-2-carboxylic acid 4-carboxy-cyclohexyl ester] | ≥ 60
≥ 50 | O=C(O)CCC1CCC(OC(=O)N2CCc3cc(NC(=O)Nc4ccccc4F)ccc3C2)CC1 (stereo not shown) [Example 10, 6-[3-(2-fluoro-phenyl)-ureido]-3,4-dihydro-1H-isoquinoline-2-carboxylic acid 4-(2-carboxy-ethyl)-cyclohexyl ester] | ≥ 60
≥ 50 | O=C(O)C=C1CCC(OC(=O)N2CCc3cc(NC(=O)Nc4ccccc4F)ccc3C2)CC1 (stereo not shown) [Example 11, 6-[3-(2-fluoro-phenyl)-ureido]-3,4-dihydro-1H-isoquinoline-2-carboxylic acid 4-carboxymethylene-cyclohexyl ester] | ≥ 60
≥ 50 | O=C(O)CC1=CCC(OC(=O)N2CCc3cc(NC(=O)Nc4ccccc4F)ccc3C2)CC1 (stereo not shown) [Example 12, 6-[3-(2-fluoro-phenyl)-ureido]-3,4-dihydro-1H-isoquinoline-2-carboxylic acid 4-carboxymethyl-cyclohex-3-enyl-ester] | ≥ 60
≥ 50 | CC(C)(C(=O)O)[C@H]1CC[C@H](OC(=O)N2CCc3cc(NC(=O)Nc4ccccc4F)ccc3C2)CC1 [Example 13, trans-6-[3-(2-fluoro-phenyl)-ureido]-3,4-dihydro-1H-isoquinoline-2-carboxylic acid 4-(carboxy-1-methyl-ethyl)-cyclohexyl ester] | ≥ 60
≥ 50 | O=C(O)CC1CCC(CC(=O)N2CCc3cc(NC(=O)Nc4ccccc4F)ccc3C2)CC1 (stereo not shown) [Example 17, [4-(2-{6-[3-(2-fluoro-phenyl)-ureido]-3,4-dihydro-1H-isoquinolin-2-yl}-2-oxoethyl)-cyclohexyl]-acetic acid] | ≥ 60
≥ 50 | CCOc1cccc(NC(=O)Nc2ccc3c(c2)CCN(C(=O)O[C@H]2CC[C@H](CC(=O)O)CC2)C3)c1 [Example 20, trans-6-[3-(3-ethoxy-phenyl)-ureido]-3,4-dihydro-1H-isoquinoline-2-carboxylic acid 4-carboxymethyl-cyclohexyl ester] | ≥ 60
≥ 50 | COc1ccccc1NC(=O)Nc1ccc2c(c1)CCN(C(=O)O[C@H]1CC[C@H](CC(=O)O)CC1)C2 [Example 21, trans-6-[3-(2-methoxy-phenyl)-ureido]-3,4-dihydro-1H-isoquinoline-2-carboxylic acid 4-carboxymethyl-cyclohexyl ester] | ≥ 60
– | O=C(Nc1ccc2c(c1)CCN(C(=O)O[C@H]1CC[C@H](CC(=O)OC[C@H](O)CO)CC1)C2)Nc1ccccc1F [Example 46, trans-6-[3-(2-fluoro-phenyl)-ureido]-3,4-dihydro-1H-isoquinoline-2-carboxylic acid 4-((R)-2,3-dihydroxy-propoxycarbonylmethyl)-cyclohexyl ester] | ≥ 60
– | CC(C)NC(=O)Nc1ccc2c(c1)CCN(C(=O)O[C@H]1CC[C@H](CC(=O)O)CC1)C2 [Example 81, trans-6-(3-isopropyl-ureido)-3,4-dihydro-1H-isoquinoline-2-carboxylic acid 4-carboxymethyl-cyclohexyl ester] | ≥ 60
